According to US20080293820A1, “METHODS FOR IMPROVING PHYSICAL FUNCTION IN FIBROMYALGIA” (Cypress Bioscience, Inc., priority 2007, published 2008):
Values joined by “and” are separate entries in the source; they are usually repeats but may differ in a detail not shown here. Equal entries are not always repeated. Structures can show the parent of a compound that is named as a salt.

Test system: patients who met the 1990 ACR criteria for fibromyalgia syndrome
Experiment: Example 1: multi-center double-blind, randomized, placebo-controlled study of milnacipran for the treatment of fibromyalgia (888 patients)
Format: in vivo, human
Set-up: Mean Change from Baseline in PFI SF-36 domain score / Mean Change from Baseline in PAIN SF-36 domain score / Mean Change from Baseline in GHP SF-36 domain score / Mean Change from Baseline in ROLP SF-36 domain score: scale not given here
Conditions: for responders for the treatment of the pain of fibromyalgia (pain composite), % = m/n: observed cases (OC), hydrochloride; for odds ratio of response / number of responders m (pain of fibromyalgia): OC; for Mean Change from Baseline in GHP SF-36 domain score / Mean Change from Baseline in PAIN SF-36 domain score / Mean Change from Baseline in PCS Score / Mean Change from Baseline in PFI SF-36 domain score / Mean Change from Baseline in ROLP SF-36 domain score: Observed Cohort
Procedure: The primary outcome was a composite responder analysis assessing response rate at weeks 14 and 15, and the secondary analysis assessed response rate at weeks 26 and 27.
This was a multi-center, randomized, double-blinded, placebo-controlled three-arm study, which enrolled 888 patients who met the 1990 ACR criteria for fibromyalgia syndrome as well as the more detailed admission criteria outlined in the protocol.
Patients were randomized to receive either placebo, 100 mg/day milnacipran, or 200 mg/day milnacipran in a ratio of a 1:1:2. All randomized medications (placebo and milnacipran) were administered in a split-dose (BID) fashion. The doses were administered in a dose escalation regimen as outlined below:
All patients were scheduled to receive a total of 24 weeks of milnacipran or placebo after the 3 weeks of dose escalation steps, for a total of 27 weeks of milnacipran or placebo exposure.
The primary endpoint of this study was a composite responder analysis implementing analysis of three domains of interest, evaluated at […]. The domains measured were:
1) pain (measured by an electronic diary as a daily recall pain score, calculated to weekly average scores)
2) patient global (measured by the PGIC, 1-7 scale)
3) physical function (measured by the SF-36 PCS).
For the primary analysis, the pain domain score was determined by a calculation that compared the average of treatment weeks 14 and 15 to the two baseline weeks, and treatment weeks 26 and 27 vs. baseline for the secondary analysis. The last observation was carried forward if neither the week 14 nor week 15 (or week 26/27) patient self-reported pain score is available to compare to the baseline value.
A responder was defined as a subject who experienced a greater than 30% reduction in pain from baseline and improvement on the PGIC.
At three months, the percentage of responders was: 35.44% (56/158) in the placebo group; 53.33% (72/135) (p=0.001) in the milnacipran 100 mg/day group; and 55.00% (143/260) (p<0.001) in the milnacipran 200 mg/day group. At six months, the percentage of responders was: 32.86% (46/140) in the placebo group; 49.59% (60/121) (p=0.002) in the milnacipran 100 mg/day group; and 51.74% (119/230) (p<0.001) in the milnacipran 200 mg/day group. See Table 1 for a summary of the results in the Intent-to-Treat Population and Table 2 for a summary of the Last Observation Carried Forward (LOCF), Baseline Observation Carried Forward (BOCF) and study completer (OC) populations. LOCF is an analysis in which observations are carried forward to the last time point for patients who dropped out. The LOCF analysis treats the carried-forward data as observed data at the last time point. BOCF is an analysis that requires the patient remain active in the trial to be evaluated for response. If a patient withdraws from the trial for any reason they are classed as a non-responder irregardless of their pain and global scores at the time of withdrawal.
The following domains were used to evaluate the PCS score: physical function (PFI), role physical (ROLP), bodily pain (PAIN), general health profile (GHP), […] (VIT), social role (SOC), role emotional (ROLE) and mental health index (MHI). The PFI, ROLP, PAIN and GHP domains are positively weighted in the PCS calculation, and the VIT, SOC, ROLE and MHI domains are negatively weighted in the PCS calculation (Normative Value=50, SD=10).

CCN(CC)C(=O)C1(c2ccccc2)CC1CN (racemic) [milnacipran, Z-2-aminomethyl-1-phenyl-N,N-diethylcyclopropanecarboxamide hydrochloride]
physical function in patients with fibromyalgia compared to placebo (in words) (100 mg or 200 mg): surprisingly and effectively improves physical function
responders for the treatment of the pain of fibromyalgia (pain composite), % = m/n (100 mg/day, treatment weeks 14-15 (3 months)): 53.33% and 53.3%
responders for the treatment of the pain of fibromyalgia (pain composite), % = m/n (100 mg/day, treatment weeks 14-15 (3 months), listed as Milnacipran): 53.33%
responders for the treatment of the pain of fibromyalgia (pain composite), % = m/n (100 mg/day, treatment weeks 26-27 (6 months)): 49.59% and 49.6%
responders for the treatment of the pain of fibromyalgia (pain composite), % = m/n (100 mg/day, treatment weeks 26-27 (6 months), listed as Milnacipran): 49.59%
odds ratio of response (100 mg/day, weeks 14-15): 2.10
number of responders m (pain of fibromyalgia) (100 mg/day, weeks 14-15, n=135): 72
odds ratio of response (100 mg/day, weeks 26-27): 1.96
number of responders m (pain of fibromyalgia) (100 mg/day, weeks 26-27, n=121): 60
Pain Composite responder rate, Sensitivity Analysis II (100 mg, 3 month): 32.%
Pain Composite responder rate, Sensitivity Analysis III (100 mg, 3 month): 32.1%
Pain Composite responder rate, Sensitivity Analysis I (BOCF) (100 mg, 3 month): 32.1%
Individual component responder rate: PGIC (LOCF) (100 mg, 3 month): 54.0%
Individual component responder rate: Pain (LOCF) (100 mg, 3 month): 35.7%
Pain Composite responder rate, Primary Analysis (LOCF) (100 mg, 3 month): 33.5%
Pain Composite responder rate, Sensitivity Analysis II (100 mg, 6 month): 27.2%
Pain Composite responder rate, Sensitivity Analysis III (100 mg, 6 month): 29.5%
Pain Composite responder rate, Sensitivity Analysis I (BOCF) (100 mg, 6 month): 26.8%
Individual component responder rate: PGIC (LOCF) (100 mg, 6 month): 49.6%
Individual component responder rate: Pain (LOCF) (100 mg, 6 month): 35.7%
Pain Composite responder rate, Primary Analysis (LOCF) (100 mg, 6 month): 30.8%
Mean Change from Baseline in GHP SF-36 domain score (100 mg, Tx 3): 5.9
Mean Change from Baseline in PAIN SF-36 domain score (100 mg, Tx 3): 11.8
Mean Change from Baseline in PCS Score (100 mg, Tx 3): 3.6
Mean Change from Baseline in PFI SF-36 domain score (100 mg, Tx 3): 6.4
Mean Change from Baseline in ROLP SF-36 domain score (100 mg, Tx 3): 12.3
Mean Change from Baseline in GHP SF-36 domain score (100 mg, Tx 7): 6.3
Mean Change from Baseline in PAIN SF-36 domain score (100 mg, Tx 7): 15.0
Mean Change from Baseline in PCS Score (100 mg, Tx 7): 4.6
Mean Change from Baseline in PFI SF-36 domain score (100 mg, Tx 7): 7.6
Mean Change from Baseline in ROLP SF-36 domain score (100 mg, Tx 7): 16.4
Mean Change from Baseline in GHP SF-36 domain score (100 mg, Tx 11): 8.1
Mean Change from Baseline in PAIN SF-36 domain score (100 mg, Tx 11): 19.4
Mean Change from Baseline in PCS Score (100 mg, Tx 11): 5.9
Mean Change from Baseline in PFI SF-36 domain score (100 mg, Tx 11): 10.6
Mean Change from Baseline in ROLP SF-36 domain score (100 mg, Tx 11): 18.6
Mean Change from Baseline in GHP SF-36 domain score (100 mg, Tx 15): 7.8
Mean Change from Baseline in PAIN SF-36 domain score (100 mg, Tx 15): 18.1
Mean Change from Baseline in PCS Score (100 mg, Tx 15): 6.2
Mean Change from Baseline in PFI SF-36 domain score (100 mg, Tx 15): 11.4
Mean Change from Baseline in ROLP SF-36 domain score (100 mg, Tx 15): 19.3
responders for the treatment of the pain of fibromyalgia (pain composite), % = m/n (200 mg/day, treatment weeks 14-15 (3 months)): 55.0%
responders for the treatment of the pain of fibromyalgia (pain composite), % = m/n (200 mg/day, treatment weeks 14-15 (3 months), listed as Milnacipran): 55.00%
responders for the treatment of the pain of fibromyalgia (pain composite), % = m/n (200 mg/day, treatment weeks 26-27 (6 months)): 51.74% and 51.7%
responders for the treatment of the pain of fibromyalgia (pain composite), % = m/n (200 mg/day, treatment weeks 26-27 (6 months), listed as Milnacipran): 51.74%
odds ratio of response (200 mg/day, weeks 14-15): 2.20
number of responders m (pain of fibromyalgia) (200 mg/day, weeks 14-15, n=260): 143
odds ratio of response (200 mg/day, weeks 26-27): 2.20
number of responders m (pain of fibromyalgia) (200 mg/day, weeks 26-27, n=230): 119
Pain Composite responder rate, Sensitivity Analysis II (200 mg, 3 month): 32.7%
Pain Composite responder rate, Sensitivity Analysis III (200 mg, 3 month): 32.4%
Pain Composite responder rate, Sensitivity Analysis I (BOCF) (200 mg, 3 month): 32.4%
Individual component responder rate: PGIC (LOCF) (200 mg, 3 month): 50.6%
Individual component responder rate: Pain (LOCF) (200 mg, 3 month): 38.3%
Pain Composite responder rate, Primary Analysis (LOCF) (200 mg, 3 month): 34.9%
Pain Composite responder rate, Sensitivity Analysis II (200 mg, 6 month): 28.6%
Pain Composite responder rate, Sensitivity Analysis III (200 mg, 6 month): 29.9%
Pain Composite responder rate, Sensitivity Analysis I (BOCF) (200 mg, 6 month): 27.0%
Individual component responder rate: PGIC (LOCF) (200 mg, 6 month): 49.9%
Individual component responder rate: Pain (LOCF) (200 mg, 6 month): 35.4%
Pain Composite responder rate, Primary Analysis (LOCF) (200 mg, 6 month): 32.2%
Mean Change from Baseline in GHP SF-36 domain score (200 mg, Tx 3): 6.0
Mean Change from Baseline in PAIN SF-36 domain score (200 mg, Tx 3): 12.5
Mean Change from Baseline in PCS Score (200 mg, Tx 3): 3.6
Mean Change from Baseline in PFI SF-36 domain score (200 mg, Tx 3): 8.2
Mean Change from Baseline in ROLP SF-36 domain score (200 mg, Tx 3): 13.0
Mean Change from Baseline in GHP SF-36 domain score (200 mg, Tx 7): 8.5
Mean Change from Baseline in PAIN SF-36 domain score (200 mg, Tx 7): 18.6
Mean Change from Baseline in PCS Score (200 mg, Tx 7): 5.9
Mean Change from Baseline in PFI SF-36 domain score (200 mg, Tx 7): 11.0
Mean Change from Baseline in ROLP SF-36 domain score (200 mg, Tx 7): 19.0
Mean Change from Baseline in GHP SF-36 domain score (200 mg, Tx 11): 7.7
Mean Change from Baseline in PAIN SF-36 domain score (200 mg, Tx 11): 16.8
Mean Change from Baseline in PCS Score (200 mg, Tx 11): 5.6
Mean Change from Baseline in PFI SF-36 domain score (200 mg, Tx 11): 10.7
Mean Change from Baseline in ROLP SF-36 domain score (200 mg, Tx 11): 18.4
Mean Change from Baseline in GHP SF-36 domain score (200 mg, Tx 15): 8.2
Mean Change from Baseline in PAIN SF-36 domain score (200 mg, Tx 15): 19.3
Mean Change from Baseline in PCS Score (200 mg, Tx 15): 6.1
Mean Change from Baseline in PFI SF-36 domain score (200 mg, Tx 15): 11.9
Mean Change from Baseline in ROLP SF-36 domain score (200 mg, Tx 15): 19.9
